From patent publication US4130645A (priority 1978, dated 1978)
Where “and” joins values, the source holds several entries; their conditions need not be identical. Equal entries are not always repeated. Structures can show the parent of a compound that is named as a salt.

system: not listed separately; test: Thermal decomposition point (Differential Thermal Analyzer); format: physicochemical; conditions: 20° C./min, onset method
Protocol: By the procedure of Examples 2 and 5 the following novel salts of 2,3,5,6-tetrachloro-N-nitroaniline are prepared as listed in Table II below. The melting points (uncorrected) of said salts are determined on a Thomas Hoover Capillary Melting Point Apparatus; while the thermal decomposition points of said salts are determined on a Dupont 900 Differential Thermal Analyzer. […] Decompositions are recorded by an exothermic response and the temperatures given in Table II below are assessed by the "onset method".

For O=[N+]([O-])Nc1c(Cl)c(Cl)cc(Cl)c1Cl [drawing 23], the “Thermal Decomposition Point” value was 163 °C.
For O=[N+]([O-])Nc1c(Cl)c(Cl)cc(Cl)c1Cl [NH(C2 H5)3], the “Thermal Decomposition Point” value was 169 °C.
For O=[N+]([O-])Nc1c(Cl)c(Cl)cc(Cl)c1Cl [NH3 (CH2)3 NHC12 H25 -n], the “Thermal Decomposition Point” value was 184 °C.
With O=[N+]([O-])Nc1c(Cl)c(Cl)cc(Cl)c1Cl [K] the “Thermal Decomposition Point” value was 272 °C.
With O=[N+]([O-])Nc1c(Cl)c(Cl)cc(Cl)c1Cl [NH3 C16 H33] the “Thermal Decomposition Point” value was 148.5 °C.
With O=[N+]([O-])Nc1c(Cl)c(Cl)cc(Cl)c1Cl [NH(C3 H7)3] the “Thermal Decomposition Point” value was 154 °C.
In the case of O=[N+]([O-])Nc1c(Cl)c(Cl)cc(Cl)c1Cl [NH3 C12 H25 -n], the “Thermal Decomposition Point” value is reported as 166 °C.
For O=[N+]([O-])Nc1c(Cl)c(Cl)cc(Cl)c1Cl [NH(CH3)2 . C6 H5, N,N-dimethylaniline salt of 2,3,5,6-tetrachloro-N-nitroaniline], the “Thermal Decomposition Point” value was 128 °C.

system: Erysiphe graminis f. sp. hordei; test: whole plant or invertebrate; format: in vivo; conditions: Blumeria graminis, in Hordeum vulgare, foliar, read-out: Barley Powdery Mildew Percent Disease Control

CN(c1c(Cl)c(Cl)cc(Cl)c1Cl)[N+](=O)[O-] and CC(=O)N(c1c(Cl)c(Cl)cc(Cl)c1Cl)[N+](=O)[O-] [drawing 121] are the same in pest or weed control at 500 ppm: 100% for the first, 100% for the second.

O=[N+]([O-])Nc1ccc(Cl)cc1Cl [drawing 90] and O=[N+]([O-])Nc1cccc(Cl)c1Cl [drawing 89] are the same in pest or weed control at 500 ppm: 100% for the first, 100% for the second.

CCN(c1c(Br)cccc1Br)[N+](=O)[O-] and CN(c1c(Br)cccc1Br)[N+](=O)[O-] are the same in pest or weed control at 500 ppm: 89% for the first, 89% for the second.

O=[N+]([O-])N(Cc1ccccc1)c1c(Br)cccc1Br and CC(C)N(c1c(Br)cccc1Br)[N+](=O)[O-] are the same in pest or weed control at 500 ppm: 100% for the first, 100% for the second.

O=[N+]([O-])Nc1ccc(C(F)(F)F)cc1 [drawing 84] and O=[N+]([O-])Nc1cccc(C(F)(F)F)c1 are the same in pest or weed control at 500 ppm: 96% for the first, 96% for the second.

First: O=[N+]([O-])Nc1cccc(Br)c1 [drawing 99]
Second: N#Cc1ccc(N[N+](=O)[O-])c(Br)c1
The pest or weed control at 500 ppm of the first is lower: 96% for the first, 100% for the second.

O=[N+]([O-])Nc1c(Cl)c(Cl)cc(Cl)c1Cl [drawing 87] and O=[N+]([O-])Nc1cc(Cl)c(Cl)c(Cl)c1Cl are the same in pest or weed control at 500 ppm: 84% for the first, 84% for the second.

First: CCC(=O)Nc1cc(Cl)c(N[N+](=O)[O-])c(Cl)c1 [drawing 108]
Second: CC(=O)Nc1cc(Cl)c(N[N+](=O)[O-])c(Cl)c1 [drawing 107]
The pest or weed control at 500 ppm of the first is higher: 100% for the first, 84% for the second.

Cc1cc([N+](=O)[O-])cc(C)c1N[N+](=O)[O-] [drawing 101] and CCc1cccc(CC)c1N[N+](=O)[O-] are the same in pest or weed control at 500 ppm: 100% for the first, 100% for the second.

O=[N+]([O-])Nc1c(Cl)cccc1Cl [drawing 91] and CS(=O)(=O)c1ccc(N[N+](=O)[O-])cc1 [drawing 93] are the same in pest or weed control at 500 ppm: 100% for the first, 100% for the second.

Going from O=[N+]([O-])Nc1c(Br)cc(C(F)(F)F)cc1Br [drawing 102] to COC(=O)CN(c1c(Cl)c(Cl)cc(Cl)c1Cl)[N+](=O)[O-] [drawing 122], the pest or weed control at 500 ppm falls from 100% to 84%.

Going from O=[N+]([O-])Nc1ccc(C(F)(F)F)cc1 [drawing 84] to O=[N+]([O-])Nc1c(Cl)c(Cl)cc(Cl)c1Cl [drawing 87], the pest or weed control at 50 ppm falls from 84% to 48%.

Compound CC(=O)N(c1c(Cl)c(Cl)cc(Cl)c1Cl)[N+](=O)[O-] [drawing 121] has a pest or weed control at 50 ppm of 95%.

O=[N+]([O-])Nc1ccc(C(F)(F)F)cc1 [drawing 84] and CC(=O)N(c1c(Cl)c(Cl)cc(Cl)c1Cl)[N+](=O)[O-] [drawing 121] are the same in pest or weed control at 100 ppm: 95% for the first, 95% for the second.

First: O=[N+]([O-])Nc1ccc(C(F)(F)F)cc1 [drawing 84]
Second: O=[N+]([O-])Nc1c(Br)cc(C(F)(F)F)cc1Br [drawing 102]
The pest or weed control at 200 ppm of the first is higher: 91% for the first, 83% for the second.

Going from CC(=O)N(c1c(Cl)c(Cl)cc(Cl)c1Cl)[N+](=O)[O-] [drawing 121] to CC(C)OC(=O)Nc1cc(Cl)c(N[N+](=O)[O-])c(Cl)c1, the pest or weed control at 200 ppm rises from 95% to 97%.

same assay, conditions: in vivo

Going from O=[N+]([O-])Nc1c(Cl)c(Cl)cc(Cl)c1Cl [drawing 118] to CCC(=O)Nc1cc(Cl)c(N[N+](=O)[O-])c(Cl)c1 [drawing 112], the “Barley Powdery Mildew Percent Disease Control” value falls from 100% to 89%.

With O=[N+]([O-])Nc1c(Cl)c(Cl)cc(Cl)c1Cl [drawing 87] the “Barley Powdery Mildew Percent Disease Control” value was 71%.

With O=[N+]([O-])Nc1c(Cl)c(Cl)cc(Cl)c1Cl [drawing 100] the “Barley Powdery Mildew Percent Disease Control” value was 100% and 95%.
With O=[N+]([O-])Nc1c(Cl)c(Cl)cc(Cl)c1Cl [drawing 123] the “Barley Powdery Mildew Percent Disease Control” value was 98% and 96%.
